Literature values in patent publication US6531488B1, “Method of treating neurodegenerative diseases” (Merck & Co., Inc., priority 1998, dated 2003).
Structures can show the parent of a compound that is named as a salt.

System: patients with Alzheimer's disease
Conditions: ARICEPT administered alone; patients diagnosed by NINCDS and DMS III-R criteria; assessed with ADAS-cog and CIBIC

## COc1cc2c(cc1OC)C(=O)C(CC1CCN(Cc3ccccc3)CC1)C2 (racemic) [ARICEPT, (±)-2,3-dihydro-5,6-diomethoxy-2-[[1-(phenylmethyl)-4-piperidinyl]methyl]-1H-indene-1-one hydrochloride]
  effectiveness for the treatment of the symptoms of Alzheimer's disease: effective
